A short description of the data set: mDSC measurement of the glass transition temperature (Tg). The settings on record: freshly prepared, ball milled (Table 2). It counts as physicochemical. How it is done: The mDSC thermograms of the samples were collected using a Discovery DSC (TA instruments, New Castle, USA) under a nitrogen gas flow of 50 ml/min. The samples containing Compound A, Compound B and IND were analysed at a heating rate of 2° C./min from 25° C. to 200° C., with an underlying modulation temperature amplitude of 0.2120° C. and a period of 40 s. For the remaining samples the same heating rate, amplitude and period were applied. Samples containing compounds APA, BDQ, RIF and VNX were heated from 25° C. to 250° C., and samples containing Compound RIT were heated from 0° C. to 170° C. A total of 4-8 mg sample powder was filled into aluminium Tzero pans and sealed with an aluminium Tzero lid. The glass transition temperature (Tg) was determined as the midpoint from the reversing heat flow signal.
With `CNC(=O)c1ccc(N2C(=S)N(c3cnc(C#N)c(C(F)(F)F)c3)C(=O)C23CCC3)cc1F` [Pure amorphous APA, Apalutamide], the Tg amounted to 97.4 °C. In turn, `CO[C@H]1/C=C/O[C@@]2(C)Oc3c(C)c(O)c4c(O)c(c5c(nc6cc(C)ccn65)c4c3C2=O)NC(=O)/C(C)=C\C=C\[C@H](C)[C@H](O)[C@@H](C)[C@@H](O)[C@@H](C)[C@H](OC(C)=O)[C@@H]1C` [Pure amorphous RIF, rifaximin] registered a Tg of 194.4 °C. In the case of `CC(C)c1nc(CN(C)C(=O)N[C@H](C(=O)N[C@@H](Cc2ccccc2)C[C@H](O)[C@H](Cc2ccccc2)NC(=O)OCc2cncs2)C(C)C)cs1` [Pure amorphous RIT, ritonavir], the Tg came out at 41.7 °C. For “bedaquiline fumarate [Pure amorphous BDQ]”, the Tg is 79.4 °C.

The values are drawn from patent US12564554B2, “Co-amorphous forms of beta-lactoglobulin and a drug substance” (DISPERSOME IP APS, priority 2019, dated 2026).
